# Reference: the METLIN SMRT retention time set (Domingo-Almenara et al. 2019)
# Assay: gradient 5% acetonitrile 3 min, to 50% in 2 min, to 85% in 15 min, held 3 min, 100 µL/min
# Details: column: Zorbax Extend-C18 2.1 x 50 mm; eluents: water / acetonitrile, 0.1% formic acid
# Summary of the method: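 Retention times of pure standards were taken from adduct peaks that were selected by computer and manually inspected. Over 3 months, mixtures of ~100 molecules were run by HPLC–quadrupole time-of-flight mass spectrometry in positive and negative ionization mode. The Zorbax Extend-C18 column (2.1 × 50 mm, 1.8 μm) ran at 100 μL/min in water and acetonitrile, each containing 0.1% formic acid, with 40 μL dead volume and 900 μL dwell volume.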
row,RP-LC retention time [s],Structure (SMILES)
1,631,Cc1ccc(S(=O)(=O)CCc2noc(C(=O)NCCN3CCC(C)CC3)n2)cc1
2,795,Cc1ccc(NC(=O)N2CCC(n3cnc4ccc(C)cc4c3=O)CC2)c(C)c1
3,654,Cc1cc(N2CCCC2)n2nc(CN3CCN(c4ccc(Cl)cc4)CC3)nc2n1
4,1000,CSc1ccc(CNc2cc(-n3nc(C)cc3C)ncn2)cc1
5,576,CCCNC(=O)c1ccc2ncnc(N3CCCC3)c2c1
6,905,CC(C)c1ccc(NC(=O)Cn2nc(N3CCOCC3)c3ccccc3c2=O)cc1
7,678,Cn1nc(C(=O)Nc2ccccc2)c2c1CCN(C(=O)CCC(=O)NC1CC1)C2
8,696,Cc1noc(C)c1CNC(=O)Cc1ccccc1F
9,599,O=C(NCCNC(=O)c1ccc(N2CCOCC2)nn1)c1ccc(NC(=O)C2CC2)cc1
10,754,Cc1ccc(CNC(=O)C2(C)Cn3nc(C(=O)NCCC(C)C)cc3C(=O)N2C)cc1 (centres undefined)
11,647,COc1ccc(NC(=O)N2C[C@@H]3C[C@H]2C[C@@H]3NC(=O)c2ccccc2)c(OC)c1
12,783,COc1ccc(-c2c(C)noc2NC(C)=O)cc1S(=O)(=O)Nc1ccccc1Cl
13,1410,COc1cccc(N2CCN(c3ccc(-c4nc(-c5ccccc5)no4)cn3)CC2)c1
14,901,O=C(CCCc1ccccc1)Nc1cccn2c(C3CCC3)nnc12
15,584,O=C(Nc1nnc2n1CCS2)c1c(F)cccc1F
16,1300,CC(C)Cn1c(=O)c(-c2ccc(C(=O)NCCC3=CCCCC3)cc2)nc2ccccc21
17,639,CCNc1cc(N2CCCC(CCC(=O)NCCc3cccs3)C2)ncn1 (centres undefined)
18,862,CCc1ccc(CN2C(=O)C3(CCOCC3)CC2c2nnnn2C(C)(C)C)cc1 (centres undefined)
19,891,Cc1ccc(C(=O)N2CCN(c3ccc(=O)n(-c4cccc(Cl)c4)n3)CC2)s1
20,966,CC(C)NC(=O)N1CCCC(c2cccc(C(=O)NCc3ccccc3C(F)(F)F)c2)C1 (centres undefined)
21,806,Cc1cc2c(c(=O)n(-c3ccccc3)c(=O)n2CC(=O)N(C)c2ccccc2)n1C
22,777,CC1=C(c2ccccc2)S(=O)(=O)N=C1N1CCCN(C(=O)c2cccc(C#N)c2)CC1

row,RP-LC retention time [s],Structure (SMILES)
1,671,CC(C)c1ccc(NC(=O)Cn2nc3c4ccc(Cl)cc4ncn3c2=O)cc1
2,825,CCn1cc(-c2ccc(OC)cc2)cc1C(=O)O
3,731,CCc1noc(-c2cnc3nc(C)ccc3c2Nc2ccc3c(c2)OCCO3)n1
4,998,CCc1ccc(N2CC(c3nc(-c4ccc(OC)cc4OC)no3)CC2=O)cc1 (centres undefined)
5,946,CCCn1cc(S(=O)(=O)NCc2ccccc2C)c2cccnc21
6,775,CCOC(=O)Cc1ccc(NC(=O)N2CCCC2c2c(C)noc2C)cc1 (centres undefined)
7,600,COc1cccc(CNC(=O)Nc2cc3c(cc2N2CCCC2)n(C)c(=O)n3C)c1
8,976,Cc1ccc2c(c1)N(S(C)(=O)=O)CCC(C(=O)Nc1ccc(OC(C)C)cc1)O2 (centres undefined)
9,701,O=C(O)c1ccccc1C(=O)Nc1cccc(Cl)c1
10,928,COC(=O)Cn1nc(-c2nc(-c3ccc(C)cc3)no2)ccc1=O
11,856,CN1C(=O)COc2ccc(-c3csc(NC(=O)C(C)(C)C)n3)cc21
12,856,COc1cccc(NC(=O)N(C)CCc2noc(COc3ccc(F)cc3)n2)c1
13,706,CCn1c(=O)n(CC(=O)NCCN2CCCC2)c(=O)c2cnc(-c3ccc(Cl)cc3)nc21
14,666,Cc1cccc(C)c1NC(=O)Cn1cnc2nc(N3CCC(C(=O)NC(C)C)CC3)sc2c1=O
15,1010,N#CCCN(CCC#N)c1ccc(/C=C2\N=C(c3cc([N+](=O)[O-])ccc3Cl)OC2=O)cc1
16,1090,Cc1cc(=O)n(CC(=O)Nc2cc(F)ccc2F)c(-c2ccc(F)cc2)n1
17,865,CCCc1noc(-c2ccc(-n3ncc(C(=O)NC4CC4)c3C)nc2)n1
18,919,CSc1ccccc1NC(=O)Cc1cc(-c2ccc(F)cc2)on1
19,1130,O=C(c1cc(F)ccc1Cl)N1CCc2nc(-c3ccc(Cl)cc3)ncc2C1
20,1060,COc1ccc(Cc2nc(-c3ccc4oc(C)nc4c3)no2)c(Cl)c1
21,798,CC(=O)Nc1ccc(Cc2nc(-c3cccc(-c4ccn[nH]4)c3)no2)cc1
22,692,COc1ccc(NC(=O)N2CCN(c3cc(C)nc(N4CCCC4)n3)CC2)c(C)c1

row,RP-LC retention time [s],Structure (SMILES)
1,719,Cc1ccc(-n2c(N3CCC(C(=O)NC4CC4)CC3)nc3ccsc3c2=O)cc1
2,878,O=C(NC1CC1)C1CCN(c2nc3ccc(-c4ccc(F)cc4)nc3s2)CC1
3,879,CCc1ccc(C(=O)NC2CCN(c3cc(-c4ccc(Cl)cc4)[nH]n3)C2)cc1 (centres undefined)
4,739,CCc1ccccc1S(=O)(=O)Nc1ccc2c(c1)nc(-c1ccc(C(=O)N(CC)CC)cc1)n2C
5,608,Cc1ccc(-c2nnc(N3CCC(C(=O)NCCCN4CCOCC4)CC3)o2)cc1
6,922,Cc1ccccc1CNC(=O)CCc1conc1-c1ccc(F)cc1
7,578,Cc1nc(C)c(-c2nnc(NC(=O)c3ccc(=O)[nH]n3)o2)s1
8,924,COc1ccc(-c2cn3ccn(-c4cc(C)c(Cl)cc4OC)c(=O)c3n2)cc1
9,804,Cc1ccc(-n2nc3c(N4CCCC(C(=O)NCc5ccccc5Cl)C4)nnc(C)c3c2C)cc1 (centres undefined)
10,592,C=C[C@H]1CN2CC[C@H]1C[C@H]2[C@H](O)c1ccnc2ccc(OC)cc12
11,1070,O=S(=O)(c1ccc(F)cc1)N1CCc2nc(-c3ccc(F)cc3)ncc2C1
12,700,CCN(CC)C(=O)c1ccc2c(c1)N(CC(=O)Nc1ccc(C(C)=O)cc1)C(=O)CO2
13,768,Cc1ncoc1C(=O)N1CC(F)(F)C[C@H]1c1nc(C2CC2)no1
14,802,CCCC1=Nc2cc(C(=O)N3CCN(c4ccccn4)CC3)ccc2Sc2ccc(C)cc21
15,626,CCC(=O)N1CCC2(CC1)CC1C(=O)N(CC)C(=O)N1C2 (centres undefined)
16,928,O=C(c1cn(-c2ccc(-c3nc(C4CC4)no3)cn2)cn1)N1CCCCCC1
17,822,Cc1c(O)cnc2nn(-c3ccccc3)c(=N)n12
18,745,COc1cccc(-n2c(N3CCC(C(=O)NCC4CC4)CC3)nc3ccsc3c2=O)c1
19,871,O=C(Cc1ccc(F)cc1)NCC1CC(=O)N(Cc2ccc(F)cc2)C1 (centres undefined)
20,720,COCCCNC(=O)N1CCCC(C)(C(=O)NCc2ccccc2C)C1 (centres undefined)
21,566,Cn1nnc2cc(CNC(=O)c3cccnc3)ccc21
22,681,CCc1ccc(C(=O)N2CCN(c3nnc4ccccn34)CC2)cc1

row,RP-LC retention time [s],Structure (SMILES)
1,666,CCN(C(=O)CN1C(=O)NC2(CCC(C)CC2)C1=O)c1cccc(C)c1 (centres undefined)
2,789,Cn1nc(-c2nc(-c3ccc(F)cc3)no2)c2c1CCN(C(=O)C1CCCO1)C2 (centres undefined)
3,891,O=C(CCC(=O)OCC(=O)c1ccccc1)Nc1ccc2ccccc2c1
4,589,CCN(CC)C(=O)c1cnc2nc(C)ccc2c1Nc1ccc(C(C)=O)cc1
5,872,CCOc1ccc2ccccc2c1C(=O)NCCc1ccsc1
6,889,Cc1cccc(CNC(=O)CN2CCN(Cc3ccc(F)cc3Cl)C2=O)c1
7,825,Cc1c(C(=O)NC2CC2)cnn1-c1ccc(-c2nc(C3CC3)no2)cn1
8,868,Cc1noc(C2(NC(=O)c3ccc(C)s3)CCCCC2)n1
9,618,Cc1cnc(C)n1CC1CCN(S(=O)(=O)Cc2ccccc2)C1 (centres undefined)
10,578,O=C(NC1CCN(c2cc(N3CCCC3)cnn2)C1)C1CC1 (centres undefined)
11,881,COC(=O)c1cccc(N2C=C(C#N)S(=O)(=O)c3ccc(C)cc32)c1
12,742,COc1nn(C)cc1C(=O)N1CCCC(COCc2ccccc2)C1 (centres undefined)
13,831,CCOc1ccccc1CNC(=O)C1CCCN(c2nn3c(=O)c4c(nc3s2)CCCC4)C1 (centres undefined)
14,734,CNC(=O)c1sc2nc(-c3cccc(F)c3)c(NCCOC)n2c1C
15,606,CC(=O)Nc1ccc(CCc2nc3ccc(C(=O)NCc4ccco4)cc3[nH]2)cc1
16,697,Cc1cccc(NC(=O)N2CCC(c3nc(C(=O)N(C)C)c(C)o3)CC2)c1C
17,833,O=C(Cc1cccs1)N(c1ccc(Br)cc1)C1C=CS(=O)(=O)C1 (centres undefined)
18,1070,COC(=O)c1ccc(OC)c(Cn2cnc3c(-c4ccc(C)cc4)csc3c2=O)c1
19,967,O=C(NC1CCCCC1)C1CCCN(S(=O)(=O)Cc2ccccc2Cl)C1 (centres undefined)
20,1160,O=C(NCc1ccc(F)cc1)c1nnc(-c2ccc(S(=O)(=O)N3CCCCC3)cc2)o1
21,924,CCc1ccc(-c2csc(NC(=O)c3cccnc3)n2)cc1
22,744,COC[C@@H](c1ccc(C(F)(F)F)cc1)N1CCN(C2(C)CCN(C(=O)c3c(C)ncnc3C)CC2)C[C@@H]1C

row,Structure (SMILES),RP-LC retention time [s]
1,COc1ccc2c(c1)C1(CCN(S(=O)(=O)c3ccc(F)cc3)C1)C(=O)N2 (centres undefined),820
